Measured values reported in patent publication US20230263822A1, “MODULATION OF FACTOR 11 EXPRESSION” (Ionis Pharmaceuticals, Inc., priority 2008, published 2023).
Strand notation (5' to 3'): a small letter for the sugar, then the base; units joined by * are phosphorothioate-linked, units joined directly phosphodiester-linked; [ ] holds rarer units or linkages, { } end groups; capitals alone tell only the bases. e = 2'-O-(2-methoxyethyl) (MOE); [5mC] = 5-methylcytosine; d = 2'-deoxy (DNA)

Assays:
Format in all cases: cell-based
[1] = tested on: human Factor 11 mRNA; experiment: Dose-dependent inhibition of human Factor 11 in HepG2 cells, electroporation 0.7-20 uM (Example 4); settings: for percent inhibition of Factor 11 at 0.7 μM / percent inhibition of Factor 11 at 2.2 μM / percent inhibition of Factor 11 at 6.7 μM / percent inhibition of Factor 11 at 20 μM: relative to untreated control cells
Outline: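 HepG2 cells electroporated with antisense gapmers at 0.7, 2.2, 6.7 and 20 μM, treated ~16 h. Factor 11 mRNA quantified by qRT-PCR (primer probe set RTS 2966), normalised to RIBOGREEN total RNA; expressed as percent inhibition versus untreated control cells.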

[2] = tested on: human Factor 11 mRNA; experiment: Antisense inhibition of human Factor 11 in HepG2 cells, electroporation, 8,000 nM (Example 30); settings: electroporation, 8,000 nM antisense oligonucleotide
Outline: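 HepG2 cells electroporated with 8,000 nM 5-10-5, 5-8-5 or 6-8-6 MOE gapmers (phosphorothioate, 5-methylcytidine), ~24 h. Factor 11 mRNA quantified by qRT-PCR, normalised to RIBOGREEN total RNA. Reported as percent inhibition versus untreated cells.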

[3] = tested on: human Factor 11 mRNA; experiment: Dose-dependent inhibition of human Factor 11 in HepG2 cells, lipofectin 9.375-75 nM (Example 4); settings: for percent inhibition of Factor 11 at 9.375 nM / percent inhibition of Factor 11 at 18.75 nM / percent inhibition of Factor 11 at 37.5 nM / percent inhibition of Factor 11 at 75 nM: relative to untreated control cells
Outline: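 HepG2 cells transfected via lipofectin with antisense oligonucleotide at 9.375, 18.75, 37.5 or 75 nM for about 16 h. Factor 11 mRNA quantified by real-time RT-PCR (primer probe set RTS 2966) and normalized to total RNA (RIBOGREEN). Results expressed as percent inhibition versus untreated cells.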

412206 (antisense e[5mC]*e[5mC]*eG*eT*eG*d[5mC]*dA*dT*d[5mC]*dT*dT*dT*d[5mC]*dT*dT*eG*eG*e[5mC]*eA*eT) [compound 412206]
IC50 [1]: 2.7 µM | percent inhibition of Factor 11 at 0.7 μM [1]: 22% | percent inhibition of Factor 11 at 2.2 μM [1]: 39% | percent inhibition of Factor 11 at 6.7 μM [1]: 81% | percent inhibition of Factor 11 at 20 μM [1]: 94% | Percent inhibition of human Factor 11 mRNA levels [2]: 91% | IC50 [3]: 0.021 µM | percent inhibition of Factor 11 at 9.375 nM [3]: 24% | percent inhibition of Factor 11 at 18.75 nM [3]: 47% | percent inhibition of Factor 11 at 37.5 nM [3]: 69% | percent inhibition of Factor 11 at 75 nM [3]: 86%

412223 (antisense ACAGTTTCTGGCAGGCCTCG; 5-10-5 MOE gapmer, further chemistry not given here) [compound 412223]
Percent inhibition of human Factor 11 mRNA levels [2]: 62%

412224 (antisense GCATTGGTGCACAGTTTCTG; 5-10-5 MOE gapmer, further chemistry not given here) [compound 412224]
Percent inhibition of human Factor 11 mRNA levels [2]: 84%

412225 (antisense GCAGCGGACGGCATTGGTGC; 5-10-5 MOE gapmer, further chemistry not given here) [compound 412225]
Percent inhibition of human Factor 11 mRNA levels [2]: 86%

413482 (antisense GGACGGCATTGGTGCACAGT; 5-10-5 MOE gapmer, further chemistry not given here) [compound 413482]
Percent inhibition of human Factor 11 mRNA levels [2]: 88%

416825 (antisense GCCCTTCATGTCTAGGTCCA; 5-10-5 gapmer, further chemistry not given here) [compound 416825]
IC50 [1]: 1.3 µM | percent inhibition of Factor 11 at 0.7 μM [1]: 27% | percent inhibition of Factor 11 at 2.2 μM [1]: 74% | percent inhibition of Factor 11 at 6.7 μM [1]: 92% | percent inhibition of Factor 11 at 20 μM [1]: 98% | Percent inhibition of human Factor 11 mRNA levels [2]: 90% | IC50 [3]: 0.02 µM | percent inhibition of Factor 11 at 9.375 nM [3]: 23% | percent inhibition of Factor 11 at 18.75 nM [3]: 52% | percent inhibition of Factor 11 at 37.5 nM [3]: 73% | percent inhibition of Factor 11 at 75 nM [3]: 92%

416826 (antisense ATGCCCTTCATGTCTAGGTC; 5-10-5 gapmer, further chemistry not given here) [compound 416826]
IC50 [1]: 3.2 µM | percent inhibition of Factor 11 at 0.7 μM [1]: 2% | percent inhibition of Factor 11 at 2.2 μM [1]: 47% | percent inhibition of Factor 11 at 6.7 μM [1]: 86% | percent inhibition of Factor 11 at 20 μM [1]: 82% | IC50 [3]: 0.029 µM | percent inhibition of Factor 11 at 9.375 nM [3]: 8% | percent inhibition of Factor 11 at 18.75 nM [3]: 36% | percent inhibition of Factor 11 at 37.5 nM [3]: 58% | percent inhibition of Factor 11 at 75 nM [3]: 84%

416838 (antisense GCAACCGGGATGATGAGTGC; 5-10-5 gapmer, further chemistry not given here) [compound 416838]
IC50 [1]: 5.1 µM | percent inhibition of Factor 11 at 0.7 μM [1]: 5% | percent inhibition of Factor 11 at 2.2 μM [1]: 30% | percent inhibition of Factor 11 at 6.7 μM [1]: 55% | percent inhibition of Factor 11 at 20 μM [1]: 83% | IC50 [3]: 0.019 µM | percent inhibition of Factor 11 at 9.375 nM [3]: 31% | percent inhibition of Factor 11 at 18.75 nM [3]: 51% | percent inhibition of Factor 11 at 37.5 nM [3]: 64% | percent inhibition of Factor 11 at 75 nM [3]: 86%

416856 (antisense GGCATTGGTGCACAGTTTCT; 5-10-5 gapmer, further chemistry not given here) [compound 416856]
IC50 [1]: 5.1 µM | percent inhibition of Factor 11 at 0.7 μM [1]: 0% | percent inhibition of Factor 11 at 2.2 μM [1]: 29% | percent inhibition of Factor 11 at 6.7 μM [1]: 47% | percent inhibition of Factor 11 at 20 μM [1]: 93% | Percent inhibition of human Factor 11 mRNA levels [2]: 84% | IC50 [3]: 0.027 µM | percent inhibition of Factor 11 at 9.375 nM [3]: 21% | percent inhibition of Factor 11 at 18.75 nM [3]: 45% | percent inhibition of Factor 11 at 37.5 nM [3]: 58% | percent inhibition of Factor 11 at 75 nM [3]: 74%

416864 (antisense GGCAGCGGACGGCATTGGTG; 5-10-5 gapmer, further chemistry not given here) [compound 416864]
IC50 [1]: 1.4 µM | percent inhibition of Factor 11 at 0.7 μM [1]: 32% | percent inhibition of Factor 11 at 2.2 μM [1]: 65% | percent inhibition of Factor 11 at 6.7 μM [1]: 78% | percent inhibition of Factor 11 at 20 μM [1]: 90% | Percent inhibition of human Factor 11 mRNA levels [2]: 88% | IC50 [3]: 0.026 µM | percent inhibition of Factor 11 at 9.375 nM [3]: 18% | percent inhibition of Factor 11 at 18.75 nM [3]: 43% | percent inhibition of Factor 11 at 37.5 nM [3]: 62% | percent inhibition of Factor 11 at 75 nM [3]: 78%

416892 (antisense GCCCTTCATGTCTAGGTCCA; 3-14-3 chimeric gapmer, further chemistry not given here) [compound 416892]
IC50 [1]: 2.5 µM | percent inhibition of Factor 11 at 0.7 μM [1]: 14% | percent inhibition of Factor 11 at 2.2 μM [1]: 52% | percent inhibition of Factor 11 at 6.7 μM [1]: 82% | percent inhibition of Factor 11 at 20 μM [1]: 92% | IC50 [3]: 0.023 µM | percent inhibition of Factor 11 at 9.375 nM [3]: 16% | percent inhibition of Factor 11 at 18.75 nM [3]: 50% | percent inhibition of Factor 11 at 37.5 nM [3]: 70% | percent inhibition of Factor 11 at 75 nM [3]: 85%

416925 (antisense GGTGCACAGTTTCTGGCAGG; 3-14-3 gapmer chemistry, further chemistry not given here) [compound 416925]
IC50 [1]: 3.9 µM | percent inhibition of Factor 11 at 0.7 μM [1]: 0% | percent inhibition of Factor 11 at 2.2 μM [1]: 40% | percent inhibition of Factor 11 at 6.7 μM [1]: 76% | percent inhibition of Factor 11 at 20 μM [1]: 80% | IC50 [3]: 0.03 µM | percent inhibition of Factor 11 at 9.375 nM [3]: 13% | percent inhibition of Factor 11 at 18.75 nM [3]: 38% | percent inhibition of Factor 11 at 37.5 nM [3]: 59% | percent inhibition of Factor 11 at 75 nM [3]: 75%

416999 (antisense GCACAGTTTCTGGCAGGCCT; 2-13-5 gapmer chemistry, further chemistry not given here) [compound 416999]
IC50 [1]: 2.8 µM | percent inhibition of Factor 11 at 0.7 μM [1]: 20% | percent inhibition of Factor 11 at 2.2 μM [1]: 42% | percent inhibition of Factor 11 at 6.7 μM [1]: 77% | percent inhibition of Factor 11 at 20 μM [1]: 88% | IC50 [3]: 0.03 µM | percent inhibition of Factor 11 at 9.375 nM [3]: 24% | percent inhibition of Factor 11 at 18.75 nM [3]: 37% | percent inhibition of Factor 11 at 37.5 nM [3]: 55% | percent inhibition of Factor 11 at 75 nM [3]: 73%

417002 (antisense GGTGCACAGTTTCTGGCAGG; 2-13-5 gapmer chemistry, further chemistry not given here) [compound 417002]
IC50 [1]: 2.2 µM | percent inhibition of Factor 11 at 0.7 μM [1]: 32% | percent inhibition of Factor 11 at 2.2 μM [1]: 38% | percent inhibition of Factor 11 at 6.7 μM [1]: 82% | percent inhibition of Factor 11 at 20 μM [1]: 91% | IC50 [3]: 0.019 µM | percent inhibition of Factor 11 at 9.375 nM [3]: 35% | percent inhibition of Factor 11 at 18.75 nM [3]: 52% | percent inhibition of Factor 11 at 37.5 nM [3]: 67% | percent inhibition of Factor 11 at 75 nM [3]: 70%

417003 (antisense TGGTGCACAGTTTCTGGCAG; 2-13-5 gapmer chemistry, further chemistry not given here) [compound 417003]
IC50 [1]: 3.9 µM | percent inhibition of Factor 11 at 0.7 μM [1]: 0% | percent inhibition of Factor 11 at 2.2 μM [1]: 34% | percent inhibition of Factor 11 at 6.7 μM [1]: 75% | percent inhibition of Factor 11 at 20 μM [1]: 89% | IC50 [3]: 0.033 µM | percent inhibition of Factor 11 at 9.375 nM [3]: 26% | percent inhibition of Factor 11 at 18.75 nM [3]: 44% | percent inhibition of Factor 11 at 37.5 nM [3]: 60% | percent inhibition of Factor 11 at 75 nM [3]: 56%
